Assays:
Assay in all cases: relative viability (nuclei count vs DMSO), 5 days (fraction); higher = more cells survive
201T = test system: 201T
Outline: (§1)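 One day after seeding in 1536-well plates, lung cancer cell lines were dosed by pin tool. Dosing was either single-drug or a fixed anchor-drug dose plus five library-drug doses (not always all listed) in √10 steps. After 5 days, nuclei were stained in one fix-and-stain step and counted on 4× images, and relative viability is the nuclei count of treated wells over that of vehicle wells, given as the median of duplicate plates.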

BEN = test system: BEN
Outline: as §1

EPLC-272H = test system: EPLC-272H
Outline: as §1

HCC-15 = test system: HCC-15
Outline: as §1

HCC-78 = test system: HCC-78
Outline: as §1

LCLC-97TM1 = test system: LCLC-97TM1
Outline: as §1

LU99A = test system: LU99A
Outline: as §1

NCI-H1355 = test system: NCI-H1355
Outline: as §1

NCI-H1395 = test system: NCI-H1395
Outline: as §1

NCI-H2009 = test system: NCI-H2009
Outline: as §1

NCI-H2085 = test system: NCI-H2085
Outline: as §1

NCI-H2126 = test system: NCI-H2126
Outline: as §1

NCI-H2228 = test system: NCI-H2228
Outline: as §1

NCI-H2342 = test system: NCI-H2342
Outline: as §1

NCI-H23 = test system: NCI-H23
Outline: as §1

NCI-H2405 = test system: NCI-H2405
Outline: as §1

NCI-H322M = test system: NCI-H322M
Outline: as §1

NCI-H460 = test system: NCI-H460
Outline: as §1

NCI-H647 = test system: NCI-H647
Outline: as §1

NCI-H650 = test system: NCI-H650
Outline: as §1

NCI-H661 = test system: NCI-H661
Outline: as §1

NCI-H838 = test system: NCI-H838
Outline: as §1

PC-14 = test system: PC-14
Outline: as §1

## CN1CCN(CCOc2cc(OC3CCOCC3)c3c(Nc4c(Cl)ccc5c4OCO5)ncnc3c2)CC1 [Saracatinib] + CC(=O)c1c(C)c2cnc(Nc3ccc(N4CCNCC4)cn3)nc2n(C2CCCC2)c1=O [Palbociclib] (partner 0.5 µM)
201T; first compound 0.02 µM
  relative viability: 0.358
201T; first compound 0.2 µM
  relative viability: 0.311
201T; first compound 0.6325 µM
  relative viability: 0.323
201T; first compound 2 µM
  relative viability: 0.26
BEN; first compound 0.02 µM
  relative viability: 0.513
BEN; first compound 0.2 µM
  relative viability: 0.407
BEN; first compound 0.6325 µM
  relative viability: 0.485
BEN; first compound 2 µM
  relative viability: 0.435
EPLC-272H; first compound 0.02 µM
  relative viability: 0.342
EPLC-272H; first compound 0.2 µM
  relative viability: 0.287
EPLC-272H; first compound 0.6325 µM
  relative viability: 0.413
EPLC-272H; first compound 2 µM
  relative viability: 0.305
HCC-15; first compound 0.02 µM
  relative viability: 0.763
HCC-15; first compound 0.2 µM
  relative viability: 0.677
HCC-15; first compound 0.6325 µM
  relative viability: 0.758
HCC-15; first compound 2 µM
  relative viability: 0.753
HCC-78; first compound 0.02 µM
  relative viability: 0.461
HCC-78; first compound 0.2 µM
  relative viability: 0.406
HCC-78; first compound 0.6325 µM
  relative viability: 0.45
HCC-78; first compound 2 µM
  relative viability: 0.342
LCLC-97TM1; first compound 0.02 µM
  relative viability: 0.21
LCLC-97TM1; first compound 0.2 µM
  relative viability: 0.185
LCLC-97TM1; first compound 0.6325 µM
  relative viability: 0.281
LCLC-97TM1; first compound 2 µM
  relative viability: 0.175
LU99A; first compound 0.02 µM
  relative viability: 0.413
LU99A; first compound 0.2 µM
  relative viability: 0.336
LU99A; first compound 0.6325 µM
  relative viability: 0.349
LU99A; first compound 2 µM
  relative viability: 0.31
NCI-H1355; first compound 0.02 µM
  relative viability: 0.401
NCI-H1355; first compound 0.2 µM
  relative viability: 0.432
NCI-H1355; first compound 0.6325 µM
  relative viability: 0.416
NCI-H1355; first compound 2 µM
  relative viability: 0.371
NCI-H1395; first compound 0.02 µM
  relative viability: 0.606
NCI-H1395; first compound 0.2 µM
  relative viability: 0.562
NCI-H1395; first compound 0.6325 µM
  relative viability: 0.598
NCI-H1395; first compound 2 µM
  relative viability: 0.516
NCI-H2009; first compound 0.02 µM
  relative viability: 0.261
NCI-H2009; first compound 0.2 µM
  relative viability: 0.136
NCI-H2009; first compound 0.6325 µM
  relative viability: 0.201
NCI-H2009; first compound 2 µM
  relative viability: 0.136
NCI-H2085; first compound 0.02 µM
  relative viability: 0.518
NCI-H2085; first compound 0.2 µM
  relative viability: 0.448
NCI-H2085; first compound 0.6325 µM
  relative viability: 0.499
NCI-H2085; first compound 2 µM
  relative viability: 0.48
NCI-H2126; first compound 0.02 µM
  relative viability: 0.358
NCI-H2126; first compound 0.2 µM
  relative viability: 0.344
NCI-H2126; first compound 0.6325 µM
  relative viability: 0.363
NCI-H2126; first compound 2 µM
  relative viability: 0.349
NCI-H2228; first compound 0.02 µM
  relative viability: 0.955
NCI-H2228; first compound 0.2 µM
  relative viability: 0.649
NCI-H2228; first compound 0.6325 µM
  relative viability: 0.805
NCI-H2228; first compound 2 µM
  relative viability: 0.557
NCI-H2342; first compound 0.02 µM
  relative viability: 0.528
NCI-H2342; first compound 0.2 µM
  relative viability: 0.479
NCI-H2342; first compound 0.6325 µM
  relative viability: 0.524
NCI-H2342; first compound 2 µM
  relative viability: 0.545
NCI-H23; first compound 0.02 µM
  relative viability: 0.526
NCI-H23; first compound 0.6325 µM
  relative viability: 0.573
NCI-H23; first compound 2 µM
  relative viability: 0.403
NCI-H2405; first compound 0.02 µM
  relative viability: 0.567
NCI-H2405; first compound 0.2 µM
  relative viability: 0.45
NCI-H2405; first compound 0.6325 µM
  relative viability: 0.44
NCI-H2405; first compound 2 µM
  relative viability: 0.358
NCI-H322M; first compound 0.02 µM
  relative viability: 0.534
NCI-H322M; first compound 0.2 µM
  relative viability: 0.38
NCI-H322M; first compound 0.6325 µM
  relative viability: 0.46
NCI-H322M; first compound 2 µM
  relative viability: 0.306
NCI-H460; first compound 0.02 µM
  relative viability: 0.146
NCI-H460; first compound 0.2 µM
  relative viability: 0.131
NCI-H460; first compound 0.6325 µM
  relative viability: 0.228
NCI-H460; first compound 2 µM
  relative viability: 0.121
NCI-H647; first compound 0.02 µM
  relative viability: 0.383
NCI-H647; first compound 0.2 µM
  relative viability: 0.239
NCI-H647; first compound 0.6325 µM
  relative viability: 0.347
NCI-H647; first compound 2 µM
  relative viability: 0.265
NCI-H650; first compound 0.02 µM
  relative viability: 0.336
NCI-H650; first compound 0.2 µM
  relative viability: 0.314
NCI-H650; first compound 0.6325 µM
  relative viability: 0.33
NCI-H650; first compound 2 µM
  relative viability: 0.307
NCI-H661; first compound 0.02 µM
  relative viability: 0.393
NCI-H661; first compound 0.2 µM
  relative viability: 0.359
NCI-H661; first compound 0.6325 µM
  relative viability: 0.395
NCI-H661; first compound 2 µM
  relative viability: 0.306
NCI-H838; first compound 0.02 µM
  relative viability: 0.224
NCI-H838; first compound 0.2 µM
  relative viability: 0.215
NCI-H838; first compound 0.6325 µM
  relative viability: 0.216
NCI-H838; first compound 2 µM
  relative viability: 0.182
PC-14; first compound 0.02 µM
  relative viability: 0.471
PC-14; first compound 0.2 µM
  relative viability: 0.217
PC-14; first compound 0.6325 µM
  relative viability: 0.0934
PC-14; first compound 2 µM
  relative viability: 0.0848

From the supplement of paper PMC10307832
